Assay [1] concerns the target Nitric oxide synthase, inducible (Homo sapiens, UniProt P35228). Briefly: Inhibition of human recombinant iNOS expressed in baculovirus infected Sf9 cells assessed as conversion of [3H]L-arginine to [3H]L-citrulline preincubated for 15 mins measured after 45 mins by liquid scintillation counting. The assay is classed as cell-based.
Assay [2] addresses Nitric oxide synthase 1 (Homo sapiens, UniProt P29475). Briefly: Inhibition of human recombinant nNOS expressed in baculovirus infected Sf9 cells assessed as conversion of [3H]L-arginine to [3H]L-citrulline preincubated for 15 mins measured after 45 mins by liquid scintillation counting. The assay is classed as cell-based.
The target in assay [3] is Cytochrome P450 2C19 (Homo sapiens, UniProt P33261). Briefly: Inhibition of human CYP2C19. The assay is classed as ADME.
The target of assay [4] is Cytochrome P450 2C9 (Homo sapiens, UniProt P11712). Briefly: Inhibition of human CYP2C9. The assay is classed as ADME.
The target of assay [5] is Cytochrome P450 3A4 (Homo sapiens, UniProt P08684). Briefly: Inhibition of human CYP3A4. It is filed as ADME.
Assay [6] has as its target T1, Cytochrome P450 1A2 (Homo sapiens, UniProt P05177).
T1 sequence (P05177 whole entry): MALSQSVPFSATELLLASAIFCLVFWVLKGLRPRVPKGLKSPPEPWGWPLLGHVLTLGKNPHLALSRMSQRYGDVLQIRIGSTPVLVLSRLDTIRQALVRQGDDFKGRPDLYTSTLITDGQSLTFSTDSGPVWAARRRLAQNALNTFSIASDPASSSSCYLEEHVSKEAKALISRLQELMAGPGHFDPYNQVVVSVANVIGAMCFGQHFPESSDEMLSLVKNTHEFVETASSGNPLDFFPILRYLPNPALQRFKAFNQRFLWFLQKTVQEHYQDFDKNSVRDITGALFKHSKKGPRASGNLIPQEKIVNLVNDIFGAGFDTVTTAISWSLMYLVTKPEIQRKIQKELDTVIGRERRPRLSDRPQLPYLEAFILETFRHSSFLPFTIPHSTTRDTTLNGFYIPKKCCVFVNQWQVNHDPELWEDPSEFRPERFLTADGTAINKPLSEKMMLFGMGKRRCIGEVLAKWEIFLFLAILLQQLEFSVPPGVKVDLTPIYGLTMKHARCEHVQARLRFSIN
Briefly: Inhibition of human CYP1A2. It is filed as ADME.

The target in assay [7] is Cytochrome P450 2D6 (Homo sapiens, UniProt P10635). Briefly: Inhibition of human CYP2D6. The assay is classed as ADME.
The target in assay [8] is T2, Nitric oxide synthase 3 (Homo sapiens, UniProt P29474).
T2 sequence (P29474 whole entry): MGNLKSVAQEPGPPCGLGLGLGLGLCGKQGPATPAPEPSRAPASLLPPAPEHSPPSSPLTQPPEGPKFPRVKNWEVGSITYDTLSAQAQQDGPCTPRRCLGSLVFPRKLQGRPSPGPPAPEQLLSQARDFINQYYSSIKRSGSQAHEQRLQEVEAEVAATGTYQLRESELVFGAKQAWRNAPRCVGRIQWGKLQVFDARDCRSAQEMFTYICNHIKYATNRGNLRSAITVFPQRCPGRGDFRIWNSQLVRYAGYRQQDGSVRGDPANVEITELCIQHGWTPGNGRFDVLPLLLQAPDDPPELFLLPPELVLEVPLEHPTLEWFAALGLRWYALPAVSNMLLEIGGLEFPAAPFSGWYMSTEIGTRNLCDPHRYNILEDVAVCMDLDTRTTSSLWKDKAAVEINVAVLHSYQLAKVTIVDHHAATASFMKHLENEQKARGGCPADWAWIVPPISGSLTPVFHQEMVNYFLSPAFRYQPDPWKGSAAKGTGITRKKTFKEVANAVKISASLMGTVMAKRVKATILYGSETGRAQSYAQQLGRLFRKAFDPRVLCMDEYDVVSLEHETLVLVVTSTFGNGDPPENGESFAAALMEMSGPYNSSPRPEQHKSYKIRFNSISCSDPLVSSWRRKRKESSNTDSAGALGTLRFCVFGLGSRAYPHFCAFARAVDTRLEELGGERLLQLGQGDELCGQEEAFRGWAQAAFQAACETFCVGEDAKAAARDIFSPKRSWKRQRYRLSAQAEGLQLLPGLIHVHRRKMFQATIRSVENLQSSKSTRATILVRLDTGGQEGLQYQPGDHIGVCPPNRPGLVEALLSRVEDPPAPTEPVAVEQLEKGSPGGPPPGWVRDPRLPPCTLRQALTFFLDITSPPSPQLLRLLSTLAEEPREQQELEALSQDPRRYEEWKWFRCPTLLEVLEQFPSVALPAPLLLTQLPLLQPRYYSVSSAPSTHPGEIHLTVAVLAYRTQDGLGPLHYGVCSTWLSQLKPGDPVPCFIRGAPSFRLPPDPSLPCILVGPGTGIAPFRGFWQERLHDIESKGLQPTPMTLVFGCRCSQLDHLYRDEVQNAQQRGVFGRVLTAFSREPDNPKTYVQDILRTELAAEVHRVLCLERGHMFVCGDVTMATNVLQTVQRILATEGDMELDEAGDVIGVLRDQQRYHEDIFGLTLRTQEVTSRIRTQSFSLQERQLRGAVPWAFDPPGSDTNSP
Briefly: Inhibition of human recombinant eNOS expressed in baculovirus infected Sf9 cells assessed as conversion of [3H]L-arginine to [3H]L-citrulline preincubated for 15 mins measured after 45 mins by liquid scintillation counting. The assay is classed as cell-based.

Cytochrome P450 2C9, sequence (P11712 whole entry): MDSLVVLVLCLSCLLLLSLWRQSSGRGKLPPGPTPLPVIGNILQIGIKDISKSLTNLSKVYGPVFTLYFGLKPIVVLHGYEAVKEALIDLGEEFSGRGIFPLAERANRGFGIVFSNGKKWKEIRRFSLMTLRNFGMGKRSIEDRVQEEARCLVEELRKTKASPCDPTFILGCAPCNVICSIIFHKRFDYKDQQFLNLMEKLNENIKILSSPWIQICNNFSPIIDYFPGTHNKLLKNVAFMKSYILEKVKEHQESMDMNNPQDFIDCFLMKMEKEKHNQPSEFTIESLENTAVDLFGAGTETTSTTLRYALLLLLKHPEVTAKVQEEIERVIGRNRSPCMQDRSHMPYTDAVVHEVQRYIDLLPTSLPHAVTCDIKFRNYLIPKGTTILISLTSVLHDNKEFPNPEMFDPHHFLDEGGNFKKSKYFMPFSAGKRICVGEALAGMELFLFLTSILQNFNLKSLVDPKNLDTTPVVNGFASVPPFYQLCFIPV
Cytochrome P450 3A4, sequence (P08684 whole entry): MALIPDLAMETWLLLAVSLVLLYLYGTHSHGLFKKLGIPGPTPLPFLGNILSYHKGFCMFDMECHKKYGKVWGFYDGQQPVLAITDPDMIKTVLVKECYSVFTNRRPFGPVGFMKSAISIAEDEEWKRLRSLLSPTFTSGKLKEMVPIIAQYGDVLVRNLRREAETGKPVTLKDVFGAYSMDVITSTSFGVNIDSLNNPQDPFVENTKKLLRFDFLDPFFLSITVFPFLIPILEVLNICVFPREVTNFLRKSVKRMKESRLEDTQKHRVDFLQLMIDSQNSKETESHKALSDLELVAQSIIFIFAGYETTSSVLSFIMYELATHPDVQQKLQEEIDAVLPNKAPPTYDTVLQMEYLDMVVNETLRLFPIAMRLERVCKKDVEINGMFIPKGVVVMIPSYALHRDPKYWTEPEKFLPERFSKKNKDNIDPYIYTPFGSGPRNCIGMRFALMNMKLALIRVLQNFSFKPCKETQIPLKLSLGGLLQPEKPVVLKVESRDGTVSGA
Nitric oxide synthase, inducible, sequence (P35228 whole entry): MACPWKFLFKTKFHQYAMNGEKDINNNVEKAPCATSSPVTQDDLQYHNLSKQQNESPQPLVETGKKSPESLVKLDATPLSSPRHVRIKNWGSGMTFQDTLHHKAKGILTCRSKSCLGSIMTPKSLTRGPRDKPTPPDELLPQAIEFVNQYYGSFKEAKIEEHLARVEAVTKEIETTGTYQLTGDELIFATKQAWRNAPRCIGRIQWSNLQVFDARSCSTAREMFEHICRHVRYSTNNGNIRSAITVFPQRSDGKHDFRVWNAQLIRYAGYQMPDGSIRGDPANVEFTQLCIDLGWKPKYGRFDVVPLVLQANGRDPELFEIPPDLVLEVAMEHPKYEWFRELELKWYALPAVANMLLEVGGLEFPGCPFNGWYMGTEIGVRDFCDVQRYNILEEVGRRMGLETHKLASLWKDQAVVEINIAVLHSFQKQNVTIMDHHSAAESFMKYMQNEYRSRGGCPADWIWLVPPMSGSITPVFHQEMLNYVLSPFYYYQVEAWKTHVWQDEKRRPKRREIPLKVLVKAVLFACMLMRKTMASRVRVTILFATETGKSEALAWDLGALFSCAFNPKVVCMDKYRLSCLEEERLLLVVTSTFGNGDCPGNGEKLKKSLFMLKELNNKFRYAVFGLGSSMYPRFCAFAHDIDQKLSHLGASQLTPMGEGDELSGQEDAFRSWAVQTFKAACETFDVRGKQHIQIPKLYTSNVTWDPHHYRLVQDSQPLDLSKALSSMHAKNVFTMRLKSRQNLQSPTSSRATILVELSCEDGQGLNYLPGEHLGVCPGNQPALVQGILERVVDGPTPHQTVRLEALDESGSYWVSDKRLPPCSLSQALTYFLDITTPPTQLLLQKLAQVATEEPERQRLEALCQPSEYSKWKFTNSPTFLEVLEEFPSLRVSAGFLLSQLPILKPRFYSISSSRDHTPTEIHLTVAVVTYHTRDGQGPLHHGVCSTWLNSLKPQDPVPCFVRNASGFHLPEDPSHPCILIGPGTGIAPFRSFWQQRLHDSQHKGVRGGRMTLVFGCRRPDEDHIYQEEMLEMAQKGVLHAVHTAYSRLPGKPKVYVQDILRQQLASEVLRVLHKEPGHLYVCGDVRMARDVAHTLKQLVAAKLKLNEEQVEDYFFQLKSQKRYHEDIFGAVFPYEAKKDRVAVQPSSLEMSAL
Cytochrome P450 2D6, sequence (P10635 whole entry): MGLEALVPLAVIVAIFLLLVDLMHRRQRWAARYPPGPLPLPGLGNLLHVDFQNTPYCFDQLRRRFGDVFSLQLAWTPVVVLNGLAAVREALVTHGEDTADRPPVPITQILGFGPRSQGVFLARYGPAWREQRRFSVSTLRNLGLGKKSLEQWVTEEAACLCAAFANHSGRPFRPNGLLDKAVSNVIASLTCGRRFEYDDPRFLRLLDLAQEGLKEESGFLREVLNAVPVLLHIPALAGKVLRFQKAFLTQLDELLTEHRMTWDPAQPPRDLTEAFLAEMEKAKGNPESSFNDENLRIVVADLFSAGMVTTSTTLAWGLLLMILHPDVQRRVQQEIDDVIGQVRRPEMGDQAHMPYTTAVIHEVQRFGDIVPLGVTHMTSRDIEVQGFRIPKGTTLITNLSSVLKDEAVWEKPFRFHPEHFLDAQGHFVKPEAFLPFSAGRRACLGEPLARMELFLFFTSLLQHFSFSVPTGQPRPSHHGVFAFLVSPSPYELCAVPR
Nitric oxide synthase 1, sequence (P29475 whole entry): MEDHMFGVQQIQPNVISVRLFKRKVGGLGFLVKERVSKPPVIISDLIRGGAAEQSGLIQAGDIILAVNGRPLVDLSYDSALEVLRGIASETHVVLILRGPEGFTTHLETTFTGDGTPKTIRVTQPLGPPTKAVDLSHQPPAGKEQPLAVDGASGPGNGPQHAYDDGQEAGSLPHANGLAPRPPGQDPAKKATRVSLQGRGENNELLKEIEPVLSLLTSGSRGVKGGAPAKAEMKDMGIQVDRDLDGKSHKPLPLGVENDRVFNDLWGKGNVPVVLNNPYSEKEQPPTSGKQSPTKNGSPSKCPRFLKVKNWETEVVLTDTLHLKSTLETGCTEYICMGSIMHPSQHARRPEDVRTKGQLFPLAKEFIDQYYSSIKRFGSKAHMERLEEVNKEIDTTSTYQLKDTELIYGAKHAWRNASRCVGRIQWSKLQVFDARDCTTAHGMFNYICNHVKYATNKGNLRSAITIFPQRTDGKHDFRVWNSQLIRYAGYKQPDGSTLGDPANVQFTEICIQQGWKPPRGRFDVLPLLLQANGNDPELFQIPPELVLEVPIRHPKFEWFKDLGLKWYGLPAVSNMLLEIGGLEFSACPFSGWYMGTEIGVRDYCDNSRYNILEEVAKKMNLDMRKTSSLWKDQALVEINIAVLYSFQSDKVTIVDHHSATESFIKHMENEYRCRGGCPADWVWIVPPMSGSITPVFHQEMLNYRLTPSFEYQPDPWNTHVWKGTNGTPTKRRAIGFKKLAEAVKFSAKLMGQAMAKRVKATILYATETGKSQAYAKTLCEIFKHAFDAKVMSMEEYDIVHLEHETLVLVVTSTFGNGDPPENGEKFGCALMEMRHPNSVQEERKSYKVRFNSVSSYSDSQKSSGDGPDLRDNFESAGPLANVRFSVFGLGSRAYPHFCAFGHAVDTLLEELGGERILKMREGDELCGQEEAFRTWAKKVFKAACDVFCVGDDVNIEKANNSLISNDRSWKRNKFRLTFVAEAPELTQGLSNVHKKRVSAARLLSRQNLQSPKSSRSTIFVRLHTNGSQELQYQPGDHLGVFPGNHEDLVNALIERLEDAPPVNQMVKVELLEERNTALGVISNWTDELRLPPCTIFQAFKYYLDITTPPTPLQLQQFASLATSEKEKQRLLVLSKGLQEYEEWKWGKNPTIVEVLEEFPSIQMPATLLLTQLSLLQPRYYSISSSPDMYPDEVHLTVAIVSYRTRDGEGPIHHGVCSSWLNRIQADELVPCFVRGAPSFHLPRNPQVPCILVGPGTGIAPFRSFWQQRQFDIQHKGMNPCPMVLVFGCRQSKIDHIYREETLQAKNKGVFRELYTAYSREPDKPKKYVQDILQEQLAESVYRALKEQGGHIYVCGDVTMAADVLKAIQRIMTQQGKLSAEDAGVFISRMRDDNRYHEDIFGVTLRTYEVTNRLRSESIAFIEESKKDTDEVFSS
Cytochrome P450 2C19, sequence (P33261 whole entry): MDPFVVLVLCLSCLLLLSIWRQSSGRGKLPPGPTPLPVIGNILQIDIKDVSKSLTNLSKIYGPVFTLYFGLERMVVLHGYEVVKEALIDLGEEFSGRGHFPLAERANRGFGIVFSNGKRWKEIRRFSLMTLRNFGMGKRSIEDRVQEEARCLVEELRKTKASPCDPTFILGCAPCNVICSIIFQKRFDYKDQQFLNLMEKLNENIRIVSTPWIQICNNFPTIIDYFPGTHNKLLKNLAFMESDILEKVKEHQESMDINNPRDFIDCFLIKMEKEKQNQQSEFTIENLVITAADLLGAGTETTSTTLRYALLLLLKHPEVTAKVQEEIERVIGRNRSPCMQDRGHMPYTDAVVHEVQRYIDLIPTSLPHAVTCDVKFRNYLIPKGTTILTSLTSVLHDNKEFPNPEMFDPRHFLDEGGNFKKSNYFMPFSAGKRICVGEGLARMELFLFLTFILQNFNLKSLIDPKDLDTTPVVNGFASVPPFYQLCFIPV

Consider `N=C(Nc1ccc2c(c1)CCC(=O)N2CCN1CCCC1)c1cccs1`, for which the concentration for half-maximal inhibition (IC50) (as a rule, the midpoint of a concentration-inhibition curve) in assay [1] worked out at 11 µM; in assay [2] it was 0.16 µM.
The like results for `N=C(Nc1ccc2c(c1)CCC(=O)N2CCCN1CCCC1)c1cccs1` were, in that order, greater than 100 µM and 1.22 µM.
As for `CN(C)CCN1CCCc2cc(NC(=N)c3cccs3)ccc21`, the half-maximal inhibitory concentration (IC50) in assay [3], in assay [4], in assay [5], in assay [6] and in assay [7] was greater than 100 µM each time.
With `CCN(CC)CCN1CCCc2cc(NC(=N)c3cccs3)ccc21`, the figures for the IC50 in assay [1] and in assay [2] were greater than 100 µM and 0.26 µM, respectively.
As to `N=C(Nc1ccc2c(c1)CCCN2CCCN1CCCC1)c1cccs1`, the IC50 in assay [2] is 0.086 µM; in assay [8], 9.5 µM.
Turning to `CCN(CC)CCN1C(=O)CCc2cc(NC(=N)c3cccs3)ccc21`, the IC50 in assay [1] is 12 µM.
In the case of `N=C(Nc1ccc2c(c1)CCC(=O)N2CCN1CCCCC1)c1cccs1`, in assay [1], the IC50 was greater than 100 µM.
Turning to `CN(C)CCN1CCCc2cc(NC(=N)c3cccs3)cc(F)c21`, the IC50 in assay [2] was 0.093 µM.
For the compound `CN(C)CCN1C(=O)CCc2cc(NC(=N)c3cccs3)ccc21`, the IC50 in assay [3] is greater than 100 µM; in assay [1] it was 35 µM; in assay [4], greater than 100 µM; in assay [5], greater than 100 µM; in assay [6], greater than 100 µM; in assay [7], 12.2 µM.
Regarding `CN(C)CCN1C(=O)CCc2cc(NC(=N)c3cccs3)cc(F)c21`, the IC50 in assay [2] was found to be 3.36 µM.
Regarding `CN1CCC(N2CCCc3cc(NC(=N)c4cccs4)ccc32)CC1`, the concentration for half-maximal inhibition (IC50) in assay [2] came out at 0.82 µM; in assay [8], 42.7 µM.
Take `N=C(Nc1ccc2c(c1)CCCN2C1CCNCC1)c1cccs1`: the IC50 in assay [3] is 47.1 µM; in assay [1], greater than 100 µM; in assay [4] it was greater than 100 µM; in assay [5], greater than 100 µM; in assay [2] it was 0.54 µM; in assay [8] it was 119 µM. Further, the IC50 in assay [6] and in assay [7] was greater than 100 µM in each case.
Take `CN1CCCC1CCN1C(=O)CCc2cc(NC(=N)c3cccs3)ccc21` (racemic): the IC50 is greater than 100 µM in assay [1] and 1.05 µM in assay [2].

Values taken from ChEMBL document CHEMBL1914402, “Design, synthesis, and biological evaluation of 3,4-dihydroquinolin-2(1H)-one and 1,2,3,4-tetrahydroquinoline-based selective human neuronal nitric oxide synthase (nNOS) inhibitors” (J Med Chem, 2011).
